Here are results for two molecules from US20220380430A1, “Non-Transgenic Functional Rescue of Neuropeptides” (Worcester Polytechnic Institute, priority 2021, published 2022).

The target of one experiment is T1, NPR-10B (Caenorhabditis elegans, UniProt Q6EUU1).
T1 sequence (Q6EUU1 1-362): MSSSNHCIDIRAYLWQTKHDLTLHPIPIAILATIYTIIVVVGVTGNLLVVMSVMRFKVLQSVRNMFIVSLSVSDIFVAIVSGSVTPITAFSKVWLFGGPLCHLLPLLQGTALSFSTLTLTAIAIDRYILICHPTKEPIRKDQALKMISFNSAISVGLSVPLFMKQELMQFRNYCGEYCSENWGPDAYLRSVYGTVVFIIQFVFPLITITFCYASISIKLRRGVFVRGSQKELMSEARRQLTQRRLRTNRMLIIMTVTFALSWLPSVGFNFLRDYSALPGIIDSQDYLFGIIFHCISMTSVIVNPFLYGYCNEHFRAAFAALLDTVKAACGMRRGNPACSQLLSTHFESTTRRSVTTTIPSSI
Kind of experiment: In vitro GPCR activation assay (CHO-K1 cells, aequorin, human Gα16), NPR-10B. The class given is cell-based, C. elegans. Conditions: in words. As to the method: (§1) Using Chinese hamster ovarian (CHO) cell cultures stably expressing the promiscuous G protein, Gα16, and the calcium reporter, aequorin, it was observed that both isoforms of NPR-10 are activated by seven of the ten FLP-3 peptides, with half-maximal effective concentrations (EC50) in the nM range (FIG. 14A-FIG. 14H, Table V). […] This peptide contains an R-to-K mutation within the C-terminal motif, which may explain the lack of receptor activation.
(§2) The GPCR activation assay was performed as previously described Van Sinay, E. et al. Proc. Natl Acad. Sci. USA 114, E4065-e4074 (2017) and Peymen, K. et al. PLoS Genet. 15, e1007945 (2019). Briefly, npr-10 and frpr-16 cDNAs were cloned into the pcDNA3.1 TOPO expression vector (Thermo Fisher Scientific). A CHO-K1 cell line (PerkinElmer, ES-000-A24) stably expressing apo-aequorin targeted to the mitochondria (mtAEQ) and human Gα16 was transiently transfected with the receptor cDNA construct or the empty pcDNA3.1 vector using Lipofectamine LTX and Plus reagent (Thermo Fisher Scientific). Cells were shifted to 28° C. one day later and allowed to incubate for 24 h. On the day of the assay, cells were collected in BSA medium (DMEM/Ham's F12 with 15 mM HEPES, without phenol red, 0.1% BSA) and loaded with […] coelenterazine h (Thermo Fisher Scientific) for 4 h at room temperature. The incubated cells were then added to synthetic peptides dissolved in DMEM/BSA, and luminescence was measured for 30 s at […] using a Mithras LB940 (Berthold Technologies) or MicroBeta LumiJet luminometer (PerkinElmer). After 30 s of readout, 0.1% triton X-100 was added to lyse the cells, resulting in a maximal calcium response that was measured for 10 s. After initial screening, concentration-response curves were constructed for HPLC-purified FLP-3 peptides by subjecting the transfected cells to each peptide in a concentration range from 1 pM to 10 μM. Cells transfected with an empty vector were used as a negative control. Assays were performed in triplicate on at least two independent days. Concentration-response curves were fitted using Prism v. 7 (nonlinear regression analysis with a sigmoidal concentration-response equation).

In a further experiment the target is T2, FRPR-16 (Caenorhabditis elegans, UniProt Q21957).
T2 sequence (Q21957 1-340): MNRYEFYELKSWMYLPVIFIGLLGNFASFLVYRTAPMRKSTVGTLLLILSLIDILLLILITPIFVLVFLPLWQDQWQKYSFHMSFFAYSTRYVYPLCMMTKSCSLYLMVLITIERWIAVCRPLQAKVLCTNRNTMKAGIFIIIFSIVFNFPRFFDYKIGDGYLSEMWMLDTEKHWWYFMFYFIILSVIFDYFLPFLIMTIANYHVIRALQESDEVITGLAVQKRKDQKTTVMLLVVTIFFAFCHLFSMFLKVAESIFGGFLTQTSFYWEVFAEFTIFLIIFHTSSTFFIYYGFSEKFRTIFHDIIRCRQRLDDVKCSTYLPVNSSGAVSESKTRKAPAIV
Description: In vitro GPCR activation assay (CHO-K1 cells, aequorin, human Gα16), FRPR-16. The class given is cell-based, C. elegans. To be noted: calcium/aequorin luminescence in transfected CHO-K1 cells. Here is the method:
as §2

Another experiment relates to NPR-10A. Kind of experiment: In vitro GPCR activation assay (CHO-K1 cells, aequorin, human Gα16), NPR-10A. Type of experiment: cell-based, C. elegans. Conditions: in words. As to the method: as §1
The GPCR activation assay was performed as previously described Van Sinay, E. et al. Proc. Natl Acad. Sci. USA 114, E4065-e4074 (2017) and Peymen, K. et al. PLoS Genet. 15, e1007945 (2019). Briefly, npr-10 and frpr-16 cDNAs were cloned into the pcDNA3.1 TOPO expression vector (Thermo Fisher Scientific). A CHO-K1 cell line (PerkinElmer, ES-000-A24) stably expressing apo-aequorin targeted to the mitochondria (mtAEQ) and human Gα16 was transiently transfected with the receptor cDNA construct or the empty pcDNA3.1 vector using Lipofectamine LTX and Plus reagent (Thermo Fisher Scientific). […] The incubated cells were then added to synthetic peptides dissolved in DMEM/BSA, and luminescence was measured for 30 s at […] using a Mithras LB940 (Berthold Technologies) or MicroBeta LumiJet luminometer (PerkinElmer). After 30 s of readout, 0.1% triton X-100 was added to lyse the cells, resulting in a maximal calcium response that was measured for 10 s. […]

For experiment [1], the system named is C. elegans. Kind of experiment: Single worm attraction assay (SWAA) of ascarosides. The class given is in vivo. To be noted: for dwell time in cue vs vehicle: 1 μM, in words. Here is the method: The spot retention assay was adapted to allow for better characterization of individual worm behavior and robust interrogation of attraction to small molecules. The attractiveness of 1 μM ascr #8 (FIG. 11A) were compared across multiple strains of C. elegans (the wild-type N2 strain, the high incidence of male him-5 and him-8 strains, and the chemosensory cilia defective osm-3), using the novel behavioral assay, the single worm attraction assay (SWAA) (FIG. 11A). In this assay, individual animals were placed directly into the spot of the ascaroside cue (A) while simultaneously removing any potential of male-male contact. […] Likewise, a vehicle control (V) is also included, to account of any changes in dwell time that are driven by the components of the vehicle. The outer forty wells of a 48-well suspension culture plate (Olympus Plastics, Cat #: 25-103) were seeded with 200 μL of standard NGM agar. To prepare the plates for the assay, they were acclimated to room temperature, at which point each well was seeded with 65 μL of OP50 E. coli. The assay plates were then transferred to a 37° C. incubator with the lid tilted for 4 h to allow the bacterial culture to dry on the agar. Once the bacterial culture dried, the lid was replaced the plate was stored at 20° C. until used in the assay. Fifty to sixty L4 worms were segregated by sex and stored at 20° C. for 5 h to overnight to be assayed as young adults. 0.8 μL of either vehicle control or ascaroside #8 was placed in the center of the well corresponding to that condition within the quadrant being tested, following a random block design (FIG. 11A). A single worm was placed in each of the 10 wells to be assayed, and the plate was transferred to a light source and camera and recorded for 15 m. […] Raw dwell time values were calculated by subtracting the time a worm exited the cue (center of the well in spatial controls), from the time it entered, as in the SRA. This was determined per visit, and the average dwell time was calculated for each animal in the quadrant. Averages of the four-quadrant means were determined per plate, and a minimum of five plates were assayed per strain/condition. The mean raw dwell time across five plates was calculated and used for statistical analyses and graphical display. […] An “attractive visit” was first determined for each plate as any visit greater than two standard deviations above the mean dwell time within the vehicle control for that plate. Any individual visit meeting this threshold was scored as a “1”, and any below was scored a “0”. The percent visits per-worm that were attractive was determined, and the average of each quadrant taken. […] The average percent of attractive visits across five plates was calculated and used for statistical analyses and graphical display.

Experiment [2] relates to C. elegans. Kind of experiment: Drop avoidance assay of ascr #8. The class given is in vivo. Conditions: in words. As to the method:
Because the defect in male response to ascr #8 was significant, and the SWAA was designed to detect attractive behaviors, it was sought to determine if flp-3 loss-of-function (lof) animals were in fact avoiding ascr #8. Using a previously described drop avoidance assay, forward moving animals were exposed to a drop of either vehicle control or ascr #8 and scored the avoidance index. […] The hermaphroditic behavior was unaffected by the loss of flp-3. (FIG. 12F).
Assays were performed as described previously in Chute, C. D. & Srinivasan, J. Semin. Cell Dev. Biol. 33, 18-24 (2014); Chute, C. D. et al. Nat. Commun. 10, 3186 (2019); and Hilliard, M. A. et al., EMBO J. 23, 1101-1111 (2004). Fifty to sixty L4 worms were segregated by sex and stored at 20° C. for 5 h to overnight to be assayed as young adults. One to four hours prior to the assay, the lids of unseeded plates were tilted to allow any excess moisture to evaporate off the plates. At the time of the assay, 10 or more animals were transferred onto each of the dried, unseeded plates. A drop of either water or 1 μM ascr #8 was placed on the tail of forward moving animals, and their response was scored as either an avoidance response, or no response. The total number of avoidances was divided by the total number of drops to generate an avoidance index for that plate. This was repeated for at least 10 plates over at least three different days.

No end group written: not given here.

Take “SADDSAPFGTMRF-NH2 [FLP-3-8, SADDSAPFGTMRFamide]”: on NPR-10B, the “activation of NPR-10 (NPR-10B)” value is recorded as “did not activate”. Also, on FRPR-16, the EC50 came out at 1600 nM. In addition, the “activation of NPR-10A” value with NPR-10A is “did not activate”.
In the case of `C[C@H](CC/C=C/C(=O)Nc1ccc(C(=O)O)cc1)O[C@@H]1O[C@@H](C)[C@H](O)C[C@H]1O` [ascr #8], the “dwell time in cue vs vehicle” value in the experiment with C. elegans [1] (hermaphrodites, all strains) is on record as “significantly less time in ascr #8 than the vehicle”; in the experiment with C. elegans [1] (males, wild-type and him strains), “significant increase in the amount of time spent within ascr #8 spot compared to the vehicle control”. Further, the “attractive visits to the cue” value with C. elegans [1] (males, 1 μM ascr #8) was 30-45%. Further, the “avoidance of the cue” value with C. elegans [2] (hermaphrodites) is reported as “avoid”; in the experiment on C. elegans [2] (wild-type males, 1 μM ascr #8), “did not avoid the cue”.

The term EC50 denotes the concentration needed to bring the measured effect to its halfway point.
